These results are taken from patent US11058654B2, “Compositions and methods for the treatment of hemoglobinopathies and thalassemias” (AXCELLA HEALTH INC., priority 2018, dated 2021).

Molecules are shown by their SMILES.

Common to all, as to type: cell-based, human
Assay [1] has as its system sickle cell disease patient blood. The experiment in a line: Reactive oxygen species (DCF fluorescence, H2O2) in sickle cell disease patient blood. As to the method:
(§1) Whole blood samples were appropriately diluted in Ca^2+- and Mg^2+-free Dulbecco's phosphate buffered saline (DPBS, Life Technologies) and the concentration of erythrocytes (RBC/ml) was measured on a Cellometer K2 Fluorescent Viability Cell Counter according to the manufacturer's RBC/AOPI protocol (Nexcelom Biosciences).
(§2) Cells were then diluted to 1*10^6 RBC/ml into either prewarmed 37° C. […] 2′-7′-dichlorofluorescin diacetate (DCF, Millipore Sigma), 20 mM in dimethyl sulfoxide (DMSO, Fisher) were added to a working concentration of 100 μM. Cells were incubated with dye for 15 minutes at 37° C., 5% CO2 in a tissue culture incubator, washed once, and resuspended in the 0.9 volumes of the same prewarmed 37° C. buffer with 5 minute spins at 500× g, accel/decal=5 in a swing arm centrifuge (Beckman Coulter). […] Where possible due to solubility constrains, pH-7.4-adjusted stock solutions of amino acids were used. Wells were mixed by pipetting and plates incubated at 37° C., 5% CO2 in a tissue culture incubator for 30 minutes. Optionally, 40 mM H2O2(Millipore Sigma) freshly prepared in the same buffer was added to bring the concentration to 2 mM, wells mixed by pipetting, and plates were incubated an additional 30, 60, 120, or 240 minutes before fluorescence measurement of ROS signal on a Synergy H4 (BioTek) microplate reader with excitation=488 nm and emission=530 nm, and gain either set to autogain, 75, or 100.

Assay [2] relates to whole blood of healthy control donors. The experiment in a line: Reactive oxygen species (DCF fluorescence, H2O2) in whole blood of healthy controls. How it is done: as §1, §2
The subject of another assay is VCAM-1. The experiment in a line: VCAM-1 cell integrated intensity in HLMVEC treated with TNFa. Particulars: 0.5 ng/mL TNFα; amino acids at 20×; 24 hours; in words. From the text: (§3) A VEC model was employed to assess the ability of amino acids to influence aspects of vascular dysfunction in SCD. TNFa treatment of healthy donor HLMVEC mimics the SCD disease state and induces expression of adhesion markers ICAM-1 and VCAM-1, and secretion of proinflammatory cytokine IL-6. It is established that levels of ICAM-1, VCAM-1, and IL-6 can contribute to SCD pathology and correlate with the incidence and severity of complications in SCD patients. The VEC model sought to test the ability of amino acids to reduce the TNFa-induced disease phenotype by lowering expression of adhesion markers (ICAM-1 and VCAM-1) and inflammatory cytokines (IL-6) while promoting VEC health and viability.
Primary Human Lung Microvascular Endothelial Cells (HLMVEC; Lonza) were seeded at 6,000 cells per well in Endothelial Cell Growth Basal Medium-2 (Lonza) supplemented with Fetal Bovine Serum (FBS; Lonza), human EGF (Lonza), human VEGF (Lonza), R3-Insulin-like Growth Factor-1 (Lonza), ascorbic acid (Lonza), hydrocortisone (Lonza), human FGF-beta (Lonza), and gentamicin/amphotericin-b (Lonza) in a 96-well plate (Thermo Fisher). The cells were incubated for 45 minutes at room temperature, then incubated overnight at 37° C./5% CO2.
Following overnight incubation, cell were washed once with 150 μL of Dulbecco's phosphate buffered saline (DPBS; Gibco), and then treated with Endothelial Basal Medium MCB-131 (amino acid, glucose, sodium pyruvate, and phenol red free; US Biologicals) containing a defined custom amino acid concentration based on physiological concentrations in blood of patients with SCD (thus recapitulating observed metabolic imbalances such as the depletion of certain essential amino acids including arginine and aspartate and enrichment of certain non-essential amino acids including glutamate and asparagine), dialyzed FBS (Hyclone), human EGF (Lonza), human VEGF (Lonza), R3-Insulin-like Growth Factor-1 (Lonza), ascorbic acid (Lonza), hydrocortisone (Lonza), human FGF-beta (Lonza), and gentamicin/amphotericin-b (Lonza), glucose, 10 mM HEPES, sodium pyruvate, and sodium bicarbonate supplemented with one of the following: • a. PBS (vehicle control), • b. 0.5 ng/mL Tumor Necrosis Factor alpha (TNFα) and PBS, or; • c. 0.5 ng/mL TNFα and amino acid treatments at 20× mean physiological concentrations in plasma based on values published in the Human Metabolome Database (HMDB) in PBS.
After 24 hours of treatment, cells were washed once with 150 μL of DPBS (Gibco), then fixed with 4% paraformaldehyde. […]
(§4) Antibody binding was detected by fluorescence microscopy using a high content imager (Molecular Devices). Images were analyzed using MetaXpress 6 software to determine the integrated intensity per cell for each wavelength corresponding to ICAM-1 or VCAM-1.

The next assay deals with ICAM-1. Nature of the assay: ICAM-1 cell integrated intensity in HLMVEC treated with TNFa. Particulars: 0.5 ng/mL TNFα; amino acids at 20×; 24 hours; in words.
Source text: as §3
Primary Human Lung Microvascular Endothelial Cells (HLMVEC; Lonza) were seeded at 6,000 cells per well in Endothelial Cell Growth Basal Medium-2 (Lonza) supplemented with Fetal Bovine Serum (FBS; Lonza), human EGF (Lonza), human VEGF (Lonza), R3-Insulin-like Growth Factor-1 (Lonza), ascorbic acid (Lonza), hydrocortisone (Lonza), human FGF-beta (Lonza), and gentamicin/amphotericin-b (Lonza) in a 96-well plate (Thermo Fisher). […]
as §4

In the case of `N[C@@H](CS)C(=O)O` [cysteine], the “ROS measured in whole blood” value in assay [1] (treated with H2O2 and untreated in DPBS) is recorded as “reduced ROS”; in assay [2] (healthy control donors, treated with H2O2, dose-responsive), “reduced ROS”.
In the case of `NCC(=O)O` [Gly, glycine], the “VCAM-1 expression in HLMVEC” value with VCAM-1 is reported as “greatly reduced”. In the assay on ICAM-1, the “TNF-α induced ICAM-1 expression levels in HLMVEC” value was “reduced levels of ICAM-1 expression to a lesser extent”.
In the case of `N[C@@H](Cc1c[nH]c2ccccc12)C(=O)O` [tryptophan], the ROS signal entry is on record as “increased ROS signal” in assay [1] (10×) and “increased ROS signal” in assay [2] (healthy donor blood, 10×).
